In patent US12043599B2, “Herbicidal compounds” (SYNGENTA PARTICIPATIONS AG, priority 2018, dated 2024):

Legend:
Format in all cases: in vivo
Details in all cases: 250 g/h, evaluated after 13 days
Avena fatua (AVEFA) [1] = test: Post-emergence herbicidal glasshouse test, percentage damage
In short: (§1)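 Damage assessed 13 days after treatment and expressed as a five-point score (5=80-100%; 4=60-79%; 3=40-59%; 2=20-39%; 1=0-19%). Compound applied at 250 g/h as an acetone/water/0.5% Tween 20 spray, pre-emergence (day 1 after sowing) or post-emergence (day 8). Plants kept at 24/16° C., 14 h light, 65% humidity.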

Lolium perenne (LOLPE) [2] = test: as above
In short: as §1

[3] = test system: Echinochloa crus-galli (ECHCG); test: as above
In short: as §1

[4] = test system: Alopecurus myosuroides (ALOMY); test: as above
In short: as §1

Avena fatua (AVEFA) [5] = test: Pre-emergence herbicidal glasshouse test, percentage damage
In short: as §1

Lolium perenne (LOLPE) [6] = test: as above
In short: as §1

[7] = test system: Echinochloa crus-galli (ECHCG); test: as above
In short: as §1

Setaria faberi (SETFA) [8] = test: as above
In short: as §1

[9] = test system: Alopecurus myosuroides (ALOMY); test: as above
In short: as §1

Setaria faberi (SETFA) [10] = test: Post-emergence herbicidal glasshouse test, percentage damage
In short: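 Percentage damage was scored 13 days after treatment on a five-point scale (1=0-19% to 5=80-100%). Treatments were post-emergence sprays on 8-day-old wheat, barley and SETFA plants in a glasshouse (24/16 °C day/night, 14 h light, 65% humidity), using acetone/water 50:50 with 0.5% Tween 20 at the stated rates. Wheat additionally received cloquintocet-mexyl safener at 50 g/ha.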

SMILES | AVEFA POST percentage damage (five point scale) (Avena fatua (AVEFA) [1]) | LOLPE POST percentage damage (five point scale) (Lolium perenne (LOLPE) [2]) | ECHCG POST percentage damage (five point scale) [3] | ALOMY POST percentage damage (five point scale) [4] | AVEFA PRE percentage damage (five point scale) (Avena fatua (AVEFA) [5]) | LOLPE PRE percentage damage (five point scale) (Lolium perenne (LOLPE) [6]) | ECHCG PRE percentage damage (five point scale) [7] | SETFA PRE percentage damage (five point scale) (Setaria faberi (SETFA) [8]) | ALOMY PRE percentage damage (five point scale) [9] | SETFA POST percentage damage (five point scale) (Setaria faberi (SETFA) [10])
CC#Cc1cc(C)c(C2C(=O)CC3(CCN(C(=O)COC)CC3)CC2=O)c(OC)c1 [Compound A75] | 5 (5=80-100%) | 5 (5=80-100%) | 5 (5=80-100%) | 5 (5=80-100%) | 5 (5=80-100%) | 5 (5=80-100%) | 5 (5=80-100%) | 5 (5=80-100%) | 5 (5=80-100%) | 5 (5=80-100%)
CC#Cc1cc(C)c(C2C(=O)CC3(CCN(C(=O)C4=CCCCO4)CC3)CC2=O)c(C)c1 [Compound A182] | 4 (4=60-79%) | 5 (5=80-100%) | 5 (5=80-100%) | 5 (5=80-100%) | 3 (3=40-59%) | 5 (5=80-100%) | 5 (5=80-100%) | 5 (5=80-100%) | 5 (5=80-100%) | 5 (5=80-100%)
CC#Cc1cc(C)c(C2C(=O)CC3(CCN(C(=O)C4CC(C)=NO4)CC3)CC2=O)c(C)c1 (stereo not drawn) [Compound A187] | 5 (5=80-100%) | 5 (5=80-100%) | 5 (5=80-100%) | 5 (5=80-100%) | 5 (5=80-100%) | 5 (5=80-100%) | 5 (5=80-100%) | 5 (5=80-100%) | 4 (4=60-79%) | 5 (5=80-100%)
CC#Cc1cc(C)c(C2C(=O)CC3(CCN(C(=O)NC(=O)c4ccc(OC)cn4)CC3)CC2=O)c(C)c1 [Compound A176] | 2 (2=20-39%) | 5 (5=80-100%) | 5 (5=80-100%) | 5 (5=80-100%) | 2 (2=20-39%) | 5 (5=80-100%) | 5 (5=80-100%) | 5 (5=80-100%) | 3 (3=40-59%) | 5 (5=80-100%)
CC#Cc1cc(C)c(C2C(=O)CC3(CCN(C(=O)C4CCOCC4)CC3)CC2=O)c(C)c1 [Compound A38] | 4 (4=60-79%) | 5 (5=80-100%) | 5 (5=80-100%) | 5 (5=80-100%) | 3 (3=40-59%) | 5 (5=80-100%) | 5 (5=80-100%) | 5 (5=80-100%) | 5 (5=80-100%) | 5 (5=80-100%)
CC#Cc1cc(C)c(C2=C(OC(=O)COC)CC3(CCN(C(=O)COC)CC3)CC2=O)c(C)c1 [Compound P18] | 5 (5=80-100%) | 5 (5=80-100%) | 5 (5=80-100%) | 5 (5=80-100%) | 5 (5=80-100%) | 5 (5=80-100%) | 5 (5=80-100%) | 5 (5=80-100%) | 5 (5=80-100%) | 5 (5=80-100%)
CC#Cc1cc(C)c(C2C(=O)CC3(CCN(C(=O)Cc4cccnc4)CC3)CC2=O)c(C)c1 [Compound A99] | 5 (5=80-100%) | 4 (4=60-79%) | 5 (5=80-100%) | 4 (4=60-79%) | 3 (3=40-59%) | 4 (4=60-79%) | 5 (5=80-100%) | 4 (4=60-79%) | 3 (3=40-59%) | 5 (5=80-100%)
CC#Cc1cc(C)c(C2C(=O)CC3(CCN(C(=O)Cc4cnc[nH]4)CC3)CC2=O)c(C)c1 [Compound A196] | 5 (5=80-100%) | 5 (5=80-100%) | 5 (5=80-100%) | 5 (5=80-100%) | 4 (4=60-79%) | 5 (5=80-100%) | 5 (5=80-100%) | 5 (5=80-100%) | 3 (3=40-59%) | 5 (5=80-100%)
CC#Cc1cc(C)c(C2C(=O)CC3(CCN(C(=O)N(C)C(=O)C(C)(C)C)CC3)CC2=O)c(C)c1 [Compound A165] | 5 (5=80-100%) | 5 (5=80-100%) | 5 (5=80-100%) | 5 (5=80-100%) | 4 (4=60-79%) | 4 (4=60-79%) | 5 (5=80-100%) | 5 (5=80-100%) | 4 (4=60-79%) | 5 (5=80-100%)
CC#Cc1cc(C)c(C2=C(OC(=O)C3CC3)CC3(CCN(C(=O)C4CC4)CC3)CC2=O)c(C)c1 [Compound P1, [3-(cyclopropanecarbonyl)-9-(2,6-dimethyl-4-prop-1-ynyl-phenyl)-10-oxo-3-azaspiro[5.5]undec-8-en-8-yl] cyclopropanecarboxylate] | 5 (5=80-100%) | 5 (5=80-100%) | 5 (5=80-100%) | 5 (5=80-100%) | 5 (5=80-100%) | 5 (5=80-100%) | 5 (5=80-100%) | 5 (5=80-100%) | 5 (5=80-100%) | 5 (5=80-100%)
CC#Cc1cc(C)c(C2=C(OC(=O)OC)CC3(CCN(C(=O)C(C)(C)C#N)CC3)CC2=O)c(C)c1 [Compound P27] | 5 (5=80-100%) | 5 (5=80-100%) | 5 (5=80-100%) | 5 (5=80-100%) | 5 (5=80-100%) | 5 (5=80-100%) | 5 (5=80-100%) | 5 (5=80-100%) | 5 (5=80-100%) | 5 (5=80-100%)
CC#Cc1cc(C)c(C2C(=O)CC3(CCN(C(=O)Cc4ccncc4)CC3)CC2=O)c(C)c1 [Compound A100] | 5 (5=80-100%) | 5 (5=80-100%) | 5 (5=80-100%) | 4 (4=60-79%) | 3 (3=40-59%) | 5 (5=80-100%) | 5 (5=80-100%) | 5 (5=80-100%) | 3 (3=40-59%) | 5 (5=80-100%)
CC#Cc1cc(C)c(C2=C(OC(=O)c3ncccn3)CC3(CCN(C(=O)c4ncccn4)CC3)CC2=O)c(C)c1 [Compound P23] | 5 (5=80-100%) | 5 (5=80-100%) | – | 5 (5=80-100%) | 4 (4=60-79%) | 5 (5=80-100%) | 5 (5=80-100%) | 5 (5=80-100%) | 5 (5=80-100%) | 5 (5=80-100%)
CC#Cc1cc(C)c(C2C(=O)CC3(CCN(C(=O)NC(=O)c4ccccn4)CC3)CC2=O)c(OC)c1 [Compound A79] | 5 (5=80-100%) | 5 (5=80-100%) | – | 5 (5=80-100%) | 5 (5=80-100%) | 5 (5=80-100%) | 4 (4=60-79%) | 4 (4=60-79%) | 4 (4=60-79%) | 5 (5=80-100%)
